The results in this text go back to the supplement of paper PMC10307832.

Experiment in all cases: relative viability (nuclei count vs DMSO), 5 days (fraction); higher = more cells survive
Compound in one test: C=CC(=O)N1CCC[C@@H](n2nc(-c3ccc(Oc4ccccc4)cc3)c3c(N)ncnc32)C1 [Ibrutinib]
The gist of the method:
(§1)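 Hoechst staining, done together with fixation and permeabilisation, marked nuclei for 4× imaging and MetaXpress counting. This followed 5 days without medium change after lung cancer cell lines, kept overnight at 37 °C in 1536-well plates, were pinned with five library-drug doses (not always all listed) spaced by √10 on vehicle-anchored plates. Viability is the ratio of treated-well to vehicle-well nuclei, expressed as a median across plates. Plates passed only at control CV below 25% with at least one doubling.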

Compound in the next test: C=CC(=O)Nc1cc(-n2c(=O)ccc3cnc4ccc(-c5ccc(NS(C)(=O)=O)cc5)cc4c32)ccc1C [BMX-IN-1]
The gist of the method: as §1

Compound in a further test: C=CCc1cccc(/C=N/NC(=O)CN2CCN(Cc3ccccc3)CC2)c1O [PAC-1]
The gist of the method: as §1

Compound in the test “BMX-IN-1 + Olaparib”: C=CC(=O)Nc1cc(-n2c(=O)ccc3cnc4ccc(-c5ccc(NS(C)(=O)=O)cc5)cc4c32)ccc1C [BMX-IN-1] + O=C(c1cc(Cc2n[nH]c(=O)c3ccccc23)ccc1F)N1CCN(C(=O)C2CC2)CC1 [Olaparib] (partner 8 µM)
The procedure, abridged: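 One day after seeding in 1536-well plates, lung cancer cell lines were dosed by pin tool. Dosing was either single-drug or a fixed anchor-drug dose plus five library-drug doses (not always all listed) in √10 steps. After 5 days, nuclei were stained in one fix-and-stain step and counted on 4× images, and relative viability is the nuclei count of treated wells over that of vehicle wells, given as the median of duplicate plates.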

On to SK-MES-1, for which the relative viability in the test with Ibrutinib (0.01581 µM) amounted to 0.989; in the test with Ibrutinib (0.05 µM) it was 0.888; in the test with Ibrutinib (0.1581 µM), 1.02; with Ibrutinib (0.5 µM), 0.543; with BMX-IN-1 (0.02 µM) it was 1.1; in the test with BMX-IN-1 (0.2 µM) it was 1.1. Besides, the relative viability came out at 1.11 with BMX-IN-1 (0.6325 µM); 0.998 with BMX-IN-1 (2 µM); 0.974 in the test with PAC-1 (0.02 µM); 0.987 with PAC-1 (0.06325 µM); 0.94 with PAC-1 (0.2 µM); 1.02 in the test with PAC-1 (2 µM). For the same cell line, the relative viability was determined as 0.754 in the test with BMX-IN-1 + Olaparib (first compound 0.02 µM), 0.811 with BMX-IN-1 + Olaparib (first compound 0.2 µM), 0.961 in the test with BMX-IN-1 + Olaparib (first compound 0.6325 µM) and 0.625 with BMX-IN-1 + Olaparib (first compound 2 µM).
